This note sets out measurements from patent publication US20260207604A1, “COMPOUND AND USE THEREOF” (ONQUALITY PHARMACEUTICALS CHINA LTD., priority 2022, published 2026).

In experiment [1] the test system is MCF-7 human breast cancer cells. Put plainly: Cell viability assay (CELLTITER-GLO). The class given is cell-based. Particulars: MCF7, 168 h, MCF-7 cells, 7 days. The protocol: The cell viability of MCF-7 human breast cancer cells under standard culture conditions was assessed using the CELLTITER-GLO assay. MCF-7 cells were seeded at 3,000 cells per well in 96-well plates and incubated overnight in a CO2 incubator. The next day, serial dilutions of Compound 1 at various concentrations were added to the wells. The plates were returned to the incubator and cultured for 7 days. After 7 days, the plates were equilibrated at room temperature for 30 minutes. Subsequently, 100 μL of CELLTITER-GLO detection solution was added. The cells were mixed on an orbital shaker for 5 min and then incubated for additional 10 min. The plate was read with an ENVISION reader. Data were processed and analyzed to determine the IC50 values.
On the technique in general: Cellular ATP, detected with luciferase, serves as a proxy for viable cell number.

A further experiment deals with CDK4/cyclin D (Homo sapiens, UniProt P11802). Put plainly: KinaseProfile radiometric protein kinase assay, CDK4/cyclin D. The class given is biochemical. The protocol: (§1) The KinaseProfile radiometric protein kinase assay was used to evaluate the inhibitory activity of the compounds against CDK2/cyclin E, CDK4/cyclin D, CDK6/cyclin D, CDK7/cyclin H and CDK9/cyclin T.
Chain of CDK4/cyclin D (P11802 whole entry, the tested form may be a part): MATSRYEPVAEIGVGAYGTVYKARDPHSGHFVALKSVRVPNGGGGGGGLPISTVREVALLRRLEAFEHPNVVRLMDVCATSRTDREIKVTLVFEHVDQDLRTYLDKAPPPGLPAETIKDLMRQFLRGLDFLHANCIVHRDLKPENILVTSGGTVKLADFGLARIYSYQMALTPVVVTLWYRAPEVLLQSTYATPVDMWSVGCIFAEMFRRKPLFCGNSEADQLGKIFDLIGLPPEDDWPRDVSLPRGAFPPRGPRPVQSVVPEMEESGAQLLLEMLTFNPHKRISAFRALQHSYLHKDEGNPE
Chain of CDK4/cyclin D (P30281 whole entry partner, the tested form may be a part): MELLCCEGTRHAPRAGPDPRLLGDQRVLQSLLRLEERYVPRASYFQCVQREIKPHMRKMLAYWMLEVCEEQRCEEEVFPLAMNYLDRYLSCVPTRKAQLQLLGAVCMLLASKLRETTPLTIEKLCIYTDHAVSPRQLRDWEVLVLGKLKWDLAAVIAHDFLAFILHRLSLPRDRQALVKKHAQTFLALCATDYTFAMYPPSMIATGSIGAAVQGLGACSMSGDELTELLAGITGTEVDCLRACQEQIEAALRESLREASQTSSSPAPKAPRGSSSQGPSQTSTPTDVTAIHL
(§2) The compounds were prepared in 100% DMSO at a final 50× stock concentration. The working stock solution was added as the first component to the assay wells. CDK2/cyclin E, CDK4/cyclin D, CDK6/cyclin D, CDK7/cyclin H, and CDK9/cyclin T were added in their respective kinase buffers: (CDK4: 8 mM MOPS pH 7.0, 0.2 mM EDTA, 0.03% BSA, 0.03% Tween 20, 20 mM DTT, and 0.2 mg/ml Rb fragment, 10 mM Magnesium acetate; CDK2, CDK6: 8 mM MOPS pH 7.0, 0.2 mM EDTA, 0.1 mg/mL histone H1, 10 mM Magnesium acetate; CDK7: 8 mM MOPS pH 7.0, 0.2 mM EDTA, 500 μM peptide, 10 mM Magnesium acetate; CDK9: 8 mM MOPS pH 7.0, 0.2 mM EDTA, 100 μM […], 10 mM Magnesium acetate) and [γ-^33 P-ATP] was included in the reaction mixture. The reaction was initiated by the addition of the Mg/ATP mixture and incubated at room temperature for 40 minutes. The reaction was terminated by the addition of 0.5% phosphoric acid. Then, 10 μL of the reaction mixture was spotted onto P30 filter pads, washed four times (1 minute each) with 0.425% phosphoric acid, followed by a single wash with methanol. The pads were then dried and counted. The data were recorded, inhibition rates were calculated, and IC50 values were determined accordingly. Table 2 summarizes the in vitro enzymatic inhibitory activity of the compounds of the present application.

Experiment [2] relates to 5-FU-induced diarrhea model. Put plainly: 5-FU-induced diarrhea model, 5-FU 3-day model. In kind it is in vivo, Balb/c mice. As to conditions: 5-FU 60 mg/kg once a day for 3 days, mice. The protocol:
The 5-FU-induced diarrhea model was used as an experimental model of the present invention to evaluate the in vivo activity of the compounds.
Balb/c mice (20-25 g, 7-8 weeks old, Jihui) were acclimated for one week and then randomly assigned to 3 groups (n=10 per group): control group, 5-FU group, and CDK inhibitor group. […] […] […] From Day 1 to Day 7, diarrhea severity was assessed daily for each mouse according to the diarrhea scoring system.
The diarrhea scoring system was based on the method by Akinobu Kurita (Cancer Chemother Pharmacol 2000; 46:211-20), Grade 0: normal stool; Grade 1: mild diarrhea, slightly soft stool and wet stool; Grade 2: moderate diarrhea, loose stool with slight perianal staining; Grade 3: severe diarrhea, loose watery stool with severe perianal staining.
The diarrhea relief rate (%) was calculated as follows: […]

For experiment [3], the system named is Irinotecan-induced constipation model. Description: Irinotecan-induced constipation model. The class given is in vivo, Sprague-Dawley rats. As to conditions: irinotecan 260 mg/kg once a day, 1 day, rats. The text has this: Sprague-Dawley rats (180-200 g, 7-8 weeks old, Jihui) were acclimated for 7 days and randomly divided into three groups: control group, irinotecan group, and CDK inhibitor group, with 10 rats per group. The control group received the same vehicle orally as the CDK inhibitor group, followed by an injection of the same vehicle as the irinotecan group; the irinotecan group received the same oral vehicle as the CDK inhibitor group, followed by an injection of irinotecan; the CDK inhibitor group received the CDK inhibitor orally, followed by an injection of irinotecan.
From Day 2 to Day 7, the degree of constipation was assessed for each rat based on the following score:
Constipation assessment: Feces excreted within a 3-hour period were collected and evaluated for morphology and weight using an electronic balance. Stool reduction rate was calculated according to the method of Ji Eun Kim (Lab Anim Res. 2016 December; 32(4): 231-240). Stool reduction rate (%)=(Control group−Irinotecan or CDK inhibitor group)/Control group×100%.
The constipation relief rate of the CDK inhibitor was calculated as follows: Relief rate (%)=([…])/Irinotecan group stool reduction rate×100%.

Another experiment addresses CDK2/cyclin E (Homo sapiens, UniProt P24941). Put plainly: KinaseProfile radiometric protein kinase assay, CDK2/cyclin E. In kind it is biochemical. As to the method: as §1, §2
Where [4] appears, read: 10 mg/kg oral twice a day for 3 days.
The mark [5] stands for this setting: 25 mg/kg oral twice a day for 3.5 days.
Where [6] appears, read: 50 mg/kg oral twice a day for 3 days.
[7] abbreviates: 50 mg/kg oral twice a day for 4 days.
Setting [8] is: 5 mg/kg oral, 4 hours before irinotecan and 8 hours after irinotecan.
Setting [9] is: 50 mg/kg oral, 4 hours before irinotecan and 8 hours after irinotecan.
Setting [10] is: 10 mg/kg oral twice a day for 3.5 days.
[11] abbreviates: 100 mg/kg oral twice a day for 3 days.
The mark [12] stands for this setting: 50 mg/kg oral, 6 hours before irinotecan and 6 hours after irinotecan.
Where [13] appears, read: 10 mg/kg oral, 4 hours before irinotecan and 8 hours after irinotecan.
Where [14] appears, read: 25 mg/kg oral, 6 hours before irinotecan and 6 hours after irinotecan.

pIC50: −log10 of the molar value. Where two headings read alike, the source gives them in different places.

For `CC(=O)c1c(C)c2cnc(Nc3ccc(N4CCN(S(=O)(=O)NCC(C)(C)N)CC4)cn3)nc2n(C2CCCC2)c1=O` [Compound 2], the pIC50 in experiment [1] (read-out: Absolute IC 50) is greater than 6.30; in experiment [1] (read-out: Relative IC 50), greater than 6.00; on CDK4/cyclin D, greater than 7.30; against CDK2/cyclin E it was less than 5.00. In addition, the diarrhea relief rate in experiment [2] (setting [4]) turned out to be 25%; in experiment [2] (25 mg/kg oral twice a day for 3 days), 40%; in experiment [2] (setting [5]), 50%; in experiment [2] (setting [6]), 60%; in experiment [2] (setting [7]) it was 40%; in experiment [2] (100 mg/kg oral twice a day for 3.5 days) it was 50%. Further, the constipation relief rate is 25% in experiment [3] (setting [8]); 80% in experiment [3] (setting [9]); 80% in experiment [3] (100 mg/kg oral, 6 hours before irinotecan and 6 hours after irinotecan); 60% in experiment [3] (150 mg/kg oral, 6 hours before irinotecan and 6 hours after irinotecan).
Take `CC(=O)c1c(C)c2cnc(Nc3ccc(N4CCN(S(=O)(=O)NCC(C)N)CC4)cn3)nc2n(C2CCCC2)c1=O` (centres unmarked) [Compound 3]: the pIC50 is greater than 5.00 in experiment [1] (read-out: Absolute IC 50), greater than 5.30 in experiment [1] (read-out: Relative IC 50), greater than 7.30 against CDK4/cyclin D and less than 5.00 at CDK2/cyclin E. Also, the diarrhea relief rate in experiment [2] (5 mg/kg oral twice a day for 4 days) is given as 25%; in experiment [2] (setting [4]), 30%; in experiment [2] (setting [10]), 40%; in experiment [2] (setting [6]), 40%; in experiment [2] (50 mg/kg oral twice a day for 3.5 days), 40%; in experiment [2] (setting [11]) it was 70%. In addition, the constipation relief rate is recorded as 50% in experiment [3] (25 mg/kg oral, 8 hours before irinotecan and 4 hours after irinotecan); 30% in experiment [3] (25 mg/kg oral, 12 hours before irinotecan and 0 hours after irinotecan); 60% in experiment [3] (setting [9]); 70% in experiment [3] (setting [12]).
In the case of `CC(=O)c1c(C)c2cnc(Nc3ccc(N4CCN(S(=O)(=O)NCCCN)CC4)cn3)nc2n(C2CCCC2)c1=O` [Compound 4], the pIC50 in experiment [1] (read-out: Absolute IC 50) is greater than 6.00; in experiment [1] (read-out: Relative IC 50) it was greater than 6.00; at CDK4/cyclin D, greater than 7.30; on CDK2/cyclin E, less than 5.52. In addition, the diarrhea relief rate in experiment [2] (5 mg/kg oral twice a day for 3 days) worked out at 30%; in experiment [2] (setting [10]), 50%; in experiment [2] (10 mg/kg oral twice a day for 4 days) it was 40%; in experiment [2] (setting [5]), 55%; in experiment [2] (setting [6]), 60%; in experiment [2] (setting [11]), 40%. The constipation relief rate in experiment [3] (setting [13]) amounted to 40%; in experiment [3] (setting [14]), 50%; in experiment [3] (setting [12]) it was 70%; in experiment [3] (100 mg/kg oral, 8 hours before irinotecan and 4 hours after irinotecan) it was 40%; in experiment [3] (100 mg/kg oral, 12 hours before irinotecan), 30%.
As to `CC(=O)c1c(C)c2cnc(Nc3ccc(N4CCN(S(=O)(=O)NCC(C)CN)CC4)cn3)nc2n(C2CCCC2)c1=O` (centres unmarked) [Compound 5], the pIC50 is greater than 5.00 in experiment [1] (read-out: Absolute IC 50), greater than 5.00 in experiment [1] (read-out: Relative IC 50), greater than 7.00 on CDK4/cyclin D and less than 5.52 against CDK2/cyclin E. The diarrhea relief rate in experiment [2] (setting [4]) was determined as 40%; in experiment [2] (setting [10]), 75%; in experiment [2] (30 mg/kg oral twice a day for 4 days), 30%; in experiment [2] (setting [6]), 40%; in experiment [2] (60 mg/kg oral twice a day for 3.5 days), 50%; in experiment [2] (setting [11]) it was 50%. Further, the constipation relief rate turned out to be 25% in experiment [3] (setting [8]); 40% in experiment [3] (setting [14]); 80% in experiment [3] (setting [9]); 60% in experiment [3] (50 mg/kg oral, 8 hours before irinotecan and 4 hours after irinotecan); 50% in experiment [3] (100 mg/kg oral, 4 hours before irinotecan and 8 hours after irinotecan); 40% in experiment [3] (100 mg/kg oral, 10 hours before irinotecan and 2 hours after irinotecan).
As to `CC(=O)c1c(C)c2cnc(Nc3ccc(N4CCN(S(=O)(=O)NCC(C)(C)CN)CC4)cn3)nc2n(C2CCCC2)c1=O` [Compound 6], the pIC50 in experiment [1] (read-out: Absolute IC 50) was greater than 6.00; in experiment [1] (read-out: Relative IC 50), greater than 6.00; at CDK4/cyclin D, greater than 7.30; on CDK2/cyclin E it was less than 5.00. The diarrhea relief rate in experiment [2] (setting [4]) is reported as 30%; in experiment [2] (20 mg/kg oral twice a day for 3.5 days), 50%; in experiment [2] (30 mg/kg oral twice a day for 3 days) it was 50%; in experiment [2] (setting [7]), 75%; in experiment [2] (80 mg/kg oral twice a day for 3.5 days) it was 60%; in experiment [2] (setting [11]) it was 60%. The constipation relief rate in experiment [3] (setting [13]) stood at 40%; in experiment [3] (25 mg/kg oral, 4 hours before irinotecan and 8 hours after irinotecan), 75%; in experiment [3] (setting [14]), 60%; in experiment [3] (setting [12]) it was 75%; in experiment [3] (150 mg/kg oral, 12 hours before irinotecan), 25%.
